The source of these data is patent US9556179B2 (BRISTOL-MYERS SQUIBB COMPANY, priority 2012, dated 2017).

Assay [1] addresses CK1ε (Homo sapiens (Human), UniProt P49674). Briefly: CK1ε kinase assay (Caliper LABCHIP electrophoretic separation of fluoresceinated peptide substrate and product). The following applies: 200 pM enzyme, 50 μM ATP, 22 hours at room temperature. The class given is biochemical. The method, then:
(§1) CK1ε and CK1δ Kinase Assays
(§2) The kinase assay was performed in V-bottom 384-well plates. […] The reaction was incubated at room temperature for 22 hours and terminated by adding 45 μl of 35 mM EDTA to each sample. The reaction mixture was analyzed on the Caliper LABCHIP®3000 (Caliper, Hopkinton, Mass.) by electrophoretic separation of the unphosphorylated substrate and phosphorylated product. […] Compounds were dissolved at 10 mM in dimethylsulfoxide (DMSO) and evaluated at eleven concentrations. IC50 values were derived by non-linear regression analysis.

The target in assay [2] is CK1δ (Homo sapiens (Human), UniProt P48730). The assay can be described thus: CK1δ kinase assay (Caliper LABCHIP electrophoretic separation of fluoresceinated peptide substrate and product). The settings on record: 200 pM enzyme, 50 μM ATP, 22 hours at room temperature. The class given is biochemical. The method, then: as §1, §2
Chain of CK1δ (P48730 whole entry): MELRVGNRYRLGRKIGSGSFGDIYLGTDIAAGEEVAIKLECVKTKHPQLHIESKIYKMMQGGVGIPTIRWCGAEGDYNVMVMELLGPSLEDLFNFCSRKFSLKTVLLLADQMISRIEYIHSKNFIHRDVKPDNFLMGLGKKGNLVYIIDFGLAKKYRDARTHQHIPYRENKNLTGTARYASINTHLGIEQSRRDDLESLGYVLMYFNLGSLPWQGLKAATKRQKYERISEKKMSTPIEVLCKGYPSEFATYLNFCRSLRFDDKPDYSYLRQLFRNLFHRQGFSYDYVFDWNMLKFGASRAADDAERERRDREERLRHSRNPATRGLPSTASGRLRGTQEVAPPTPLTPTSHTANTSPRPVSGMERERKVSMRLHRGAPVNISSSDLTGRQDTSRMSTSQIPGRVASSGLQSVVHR

Structures are written as SMILES.

Chain of CK1ε (P49674 whole entry): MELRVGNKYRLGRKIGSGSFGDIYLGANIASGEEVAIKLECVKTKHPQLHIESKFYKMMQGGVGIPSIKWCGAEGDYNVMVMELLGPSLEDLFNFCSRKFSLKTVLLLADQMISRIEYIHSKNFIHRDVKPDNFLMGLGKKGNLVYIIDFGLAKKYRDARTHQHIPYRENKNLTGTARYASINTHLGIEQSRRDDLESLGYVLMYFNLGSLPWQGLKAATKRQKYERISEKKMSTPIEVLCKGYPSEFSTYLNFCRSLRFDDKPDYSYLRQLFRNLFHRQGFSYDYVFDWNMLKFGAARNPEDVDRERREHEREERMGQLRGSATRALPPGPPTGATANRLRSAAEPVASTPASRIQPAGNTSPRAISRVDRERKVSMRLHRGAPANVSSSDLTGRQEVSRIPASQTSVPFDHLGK

Usually IC50 stands for the midpoint of a concentration-inhibition curve. A higher IC50 goes with weaker potency. Consider `Cc1nc(-c2cccnc2)sc1C(=O)Nc1cn2nc(-c3c(-c4ccc(F)cc4)ncn3C3CCNCC3)ccc2n1` [Compound 95, N-(6-(4-(4-fluorophenyl)-1-(piperidin-4-yl)-1H-imidazol-5-yl)imidazo[1,2-b]pyridazin-2-yl)-4-methyl-2-(pyridin-3-yl)thiazole-5-carboxamide], for which the IC50 in assay [1] came to 0.17 nM.
Same read-out and setting: as for `Cc1nc(-c2ccncc2)sc1C(=O)Nc1cn2nc(-c3c(-c4ccc(F)cc4)ncn3C3CN(CCO)C3)ccc2n1` [Compound 152, N-(6-(4-(4-fluorophenyl)-1-(1-(2-hydroxyethyl)azetidin-3-yl)-1H-imidazol-5-yl)imidazo[1,2-b]pyridazin-2-yl)-4-methyl-2-(pyridin-4-yl)thiazole-5-carboxamide], the figure is 3.07 nM.
The compound `Cc1nc(-c2ccc(F)cc2)c(-c2ccc3nc(NC(=O)C(=O)c4ccccc4)cn3n2)n1C` [Compound 317, N-(6-(4-(4-fluorophenyl)-1,2-dimethyl-1H-imidazol-5-yl)imidazo[1,2-b]pyridazin-2-yl)-2-oxo-2-phenylacetamide] came in with an IC50 in assay [2] of 1.21 nM.
Take `O=C(Nc1cn2nc(-c3c(-c4ccc(F)cc4)ncn3C3CCN(C(=O)CC(F)(F)F)CC3)ccc2n1)c1cc(F)nc(F)c1` [Compound 94, 2,6-difluoro-N-(6-(4-(4-fluorophenyl)-1-(1-(3,3,3-trifluoropropanoyl)piperidin-4-yl)-1H-imidazol-5-yl)imidazo[1,2-b]pyridazin-2-yl)isonicotinamide]: in assay [1], the IC50 turned out to be 1.27 nM.
Regarding `Cc1nocc1C(=O)N1CCC(n2cnc(-c3ccc(F)cc3)c2-c2ccc3nc(NC(=O)c4ccnc(F)c4)cn3n2)CC1` [Compound 63, 2-fluoro-N-(6-(4-(4-fluorophenyl)-1-(1-(3-methylisoxazole-4-carbonyl)piperidm-4-yl)-1H-imidazol-5-yl)imidazo[1,2-6]pyridazin-2-yl)isonicotinamide], 0.391 nM corresponded to half-maximal inhibition in assay [1] (IC50).
Regarding `Cc1nc(-c2ccc(F)cc2)c(-c2ccc3nc(NC(=O)c4cncnc4)cn3n2)n1C` [Compound 350, N-(6-(4-(4-fluorophenyl)-1,2-dimethyl-1H-imidazol-5-yl)imidazo[1,2-b]pyridazin-2-yl)-5-pyrimidinecarboxamide], the IC50 in assay [1] worked out at 2.32 nM.
For `Cc1cc(C(=O)Nc2cn3nc(-c4c(-c5ccc(F)cc5)nc(C)n4C)ccc3n2)n[nH]1` [Compound 401, N-(6-(4-(4-fluorophenyl)-1,2-dimethyl-1H-imidazol-5-yl)imidazo[1,2-b]pyridazin-2-yl)-5-methyl-1H-pyrazole-3-carboxamide], in assay [1], the midpoint of inhibition, the IC50, lay at 34.2 nM.
On to `O=C(Nc1cn2nc(-c3c(-c4ccc(F)cc4)ncn3C3CCN(C(=O)c4cocn4)CC3)ccc2n1)c1ccnc(F)c1` [Compound 43, 2-fluoro-N-(6-(4-(4-fluorophenyl)-1-(1-(oxazole-4-carbonyl)piperidin-4-yl)-1H-imidazol-5-yl)imidazo[1,2-6]pyridazin-2-yl)isonicotinamide], for which the IC50 in assay [1] amounted to 0.952 nM.
For the compound `O=C(Nc1cn2nc(-c3c(-c4ccc(F)cc4)ncn3C3COC3)ccc2n1)c1ccnc(F)c1` [Compound 239, 2-fluoro-N-(6-(4-(4-fluorophenyl)-1-(oxetan-3-yl)-1H-imidazol-5-yl)imidazo[1,2-b]pyridazin-2-yl)iso-nicotinamide], the IC50 in assay [1] worked out at 5.18 nM.
Consider `O=C(Nc1cn2nc(-c3c(-c4ccc(F)cc4)nc4ccccn34)ccc2n1)C1CC1` [Compound 185, N-(6-(2-(4-fluorophenyl)imidazo[1,2-a]pyridin-3-yl)imidazo[1,2-b]pyridazin-2-yl)cyclopropanecarboxamide], for which half-maximal inhibition in assay [2] (IC50) required 3.8 nM.
Compound `O=C(Nc1cn2nc(-c3c(-c4ccc(F)cc4)ncn3C3CCN(Cc4ncco4)CC3)ccc2n1)c1ccnc(F)c1` [Compound 29, 2-fluoro-N-(6-(4-(4-fluorophenyl)-1-(1-(oxazol-2-ylmethyl)piperidin-4-yl)-1H-imidazol-5-yl)imidazo[1,2-6]pyridazin-2-yl)isonicotinamide] returned a half-maximal inhibitory concentration (IC50) in assay [2] of 0.226 nM.
As to `O=C(Nc1cn2nc(-c3c(-c4ccc(F)cc4)ncn3C3CCNCC3)ccc2n1)c1ccnc2ccccc12` [Compound 109, N-(6-(4-(4-fluorophenyl)-1-(piperidin-4-yl)-1H-imidazol-5-yl)imidazo[1,2-b]pyridazin-2-yl)quinoline-4-carboxamide], half-maximal inhibition in assay [1] (IC50) was put at 1.03 nM.
In turn, `O=C(Nc1cn2nc(-c3c(-c4ccc(F)cc4)ncn3C3CCN(C(=O)C4CCC4)CC3)ccc2n1)c1ccnc(F)c1` [Compound 68, N-(6-(1-(1-(cyclobutanecarbonyl)piperidin-4-yl)-4-(4-fluorophenyl)-1H-imidazol-5-yl)imidazo[1,2-b]pyridazin-2-yl)-2-fluoroisonicotinamide] came in with an IC50 in assay [2] of 0.193 nM.
For the compound `Cc1nc(-c2ccncc2)sc1C(=O)Nc1cn2nc(-c3c(-c4ccc(F)cc4)ncn3C3CCN(CCO)CC3)ccc2n1` [Compound 105, N-(6-(4-(4-fluorophenyl)-1-(1-(2-hydroxyethyl)piperidin-4-yl)-1H-imidazol-5-yl)imidazo[1,2-b]pyridazin-2-yl)-4-methyl-2-(pyridin-4-yl) thiazole-5-carboxamide], the IC50 in assay [1] is 0.096 nM.
The same measure, in the same setting: as for `O=C(Nc1cn2nc(-c3c(-c4ccc(F)cc4)ncn3C3CCN(CCO)CC3)ccc2n1)c1ccnc2ccccc12` [Compound 111, N-(6-(4-(4-fluorophenyl)-1-(1-(2-hydroxyethyl)piperidin-4-yl)-1H-imidazol-5-yl)imidazo[1,2-b]pyridazin-2-yl)quinoline-4-carboxamide], the figure is 0.564 nM.
The compound `Cc1nc(-c2ccc(F)cc2)c(-c2ccc3nc(NC(=O)c4cncn4C)cn3n2)n1C` [Compound 360, N-(6-(4-(4-fluorophenyl)-1,2-dimethyl-1H-imidazol-5-yl)imidazo[1,2-b]pyridazin-2-yl)-1-methyl-1H-imidazole-5-carboxamide] showed an IC50 in assay [1] of 5.38 nM.
In assay [1], `CC(C)(C)OCCn1cnc(-c2ccc(F)cc2)c1-c1ccc2nc(NC(=O)c3ccnc(F)c3)cn2n1` [Compound 260, N-(6-(1-(2-tert-butoxyethyl)-4-(4-fluorophenyl)-1H-imidazol-5-yl)imidazo[1,2-b]pyridazin-2-yl)-2-fluoroisonicotinamide] displayed an IC50 of 5.53 nM.
The same measure, in the same setting: then `O=C(Nc1cn2nc(-c3c(-c4ccc(F)cc4)ncn3C3CCN(Cc4ccc(O)nc4)CC3)ccc2n1)c1ccnc(F)c1` [Compound 30, 2-fluoro-N-(6-(4-(4-fluorophenyl)-1-(1-((6-hydroxypyridin-3-yl)methyl)piperidin-4-yl)-1H-imidazol-5-yl)imidazo[1,2-b]pyridazin-2-yl)isonicotinamide], with 2 nM; and `O=C(Nc1cn2nc(-c3c(-c4ccc(F)cc4)ncn3C3CCN(C(=O)OCCC(F)(F)F)CC3)ccc2n1)c1ccnc(F)c1` [Compound 83, 3,3,3-trifluoropropyl 4-(5-(2-(2-fluoroisonicotinamido)imidazo[1,2-b]pyridazin-6-yl)-4-(4-fluorophenyl)-1H-imidazol-1-yl)piperidine-1-carboxylate], with 0.461 nM.
In turn, `Cc1cc(C(=O)Nc2cn3nc(-c4c(-c5ccc(F)cc5)nc(C)n4C)ccc3n2)[nH]n1` [Compound 349, N-(6-(4-(4-fluorophenyl)-1,2-dimethyl-1H-imidazol-5-yl)imidazo[1,2-b]pyridazin-2-yl)-5-methyl-1H-pyrazole-3-carboxamide] showed an IC50 in assay [1] of 6.89 nM.
The same measure, in the same setting: as for `Cc1nc(-c2ccc(F)cc2)c(-c2ccc3nc(NC(=O)c4nc[nH]n4)cn3n2)n1C` [Compound 368, N-(6-(4-(4-fluorophenyl)-1,2-dimethyl-1H-imidazol-5-yl)imidazo[1,2-b]pyridazin-2-yl)-1H-1,2,4-triazole-3-carboxamide], the figure is 48.4 nM; as for `Cc1nnsc1C(=O)Nc1cn2nc(-c3c(-c4ccc(F)cc4)nc(C)n3C)ccc2n1` [Compound 351, N-(6-(4-(4-fluorophenyl)-1,2-dimethyl-1H-imidazol-5-yl)imidazo[1,2-b]pyridazin-2-yl)-4-methyl-1,2,3-thiadiazole-5-carboxamide], 2.01 nM.
Still for that read-out and setting: as for `O=C(Nc1cn2nc(-c3c(-c4ccc(F)cc4)ncn3C3CCN(C[C@@H](O)C(F)(F)F)CC3)ccc2n1)c1ccncc1` [Compound 7, (R)—N-(6-(4-(4-fluorophenyl)-1-(1-(3,3,3-trifluoro-2-hydroxypropyl)piperidin-4-yl)-1H-imidazol-5-yl)imidazo[1,2-b]pyridazin-2-yl)isonicotinamide], the figure is 1.77 nM.
On the same count and under the same terms, then `Cc1nc(-c2cccnc2)sc1C(=O)Nc1cn2nc(-c3c(-c4ccc(F)cc4)ncn3C3CCN(C)CC3)ccc2n1` [Compound 96], with 0.966 nM; and `Cc1nc(-c2ccc(F)cc2)c(-c2ccc3nc(NC(=O)c4ccno4)cn3n2)n1C` [Compound 387, N-(6-(4-(4-fluorophenyl)-1,2-dimethyl-1H-imidazol-5-yl)imidazo[1,2-b]pyridazin-2-yl)isoxazole-5-carboxamide], with 11.9 nM; and `O=C(Nc1cn2nc(-c3c(-c4ccc(F)cc4)ncn3CC(O)CO)ccc2n1)c1ccnc(F)c1` (stereo not shown) [Compound 235, N-(6-(1-(2,3-dihydroxypropyl)-4-(4-fluorophenyl)-1H-imidazol-5-yl)imidazo[1,2-b]pyridazin-2-yl)-2-fluoroisonicotinamide, dimethyl-formamide], with 2.82 nM.
On to `Cc1nc(-c2ccc(F)cc2)c(-c2ccc3nc(NC(=O)c4ccncc4)cn3n2)n1C` [Compound 301, N-(6-(4-(4-Fluorophenyl)-1,2-dimethyl-1H-imidazol-5-yl)imidazo[1,2-b]pyridazin-2-yl)isonicotinamide], for which the 50% inhibitory concentration (IC50) in assay [1] came to 5.29 nM.
`Cc1nc(-c2ccc(F)cc2)c(-c2ccc3nc(NC(=O)c4ccnc(N)c4)cn3n2)n1C` [Compound 323, 2-amino-N-(6-(4-(4-fluoro-phenyl)-1,2-dimethyl-1H-imidazol-5-yl)imidazo[1,2-b]pyridazin-2-yl)isonicotin-amide] gave a 50% inhibitory concentration (IC50) in assay [1] of 2.68 nM.
